Two compounds from patent US12472224B2, “Ready-to-use bivalirudin compositions” (MAIA Pharmaceuticals, Inc., priority 2019, dated 2025) can be followed below.

One data set concerns Whole human blood. Briefly: Hemolysis study. Type of data set: cell-based. As for the experimental part: Briefly, human whole blood was collected from a single donor (K2EDTA anticoagulant). The donor blood was analyzed for hemoglobin content in triplicate using an Advia 120 hematology analyzer. The dynamic mixing of drug infusate in human whole blood was simulated in this in vitro study by incubating the diluted test, reference and placebo items at a blood:formulation ratio of 1:0.75, corresponding to a final bivalirudin concentration of 2.14 mg/mL. Blood was mixed with either bivalirudin for injection as described herein, Angiomax®, a bivalirudin placebo, or 0.9% saline. The mixture as incubated at 37° C. (±5° C.) for 30 minutes. Negative controls containing only blood (whole blood control) or blood mixed with 0.9% saline at a blood:saline ratio of 1:0.75 (0.9% NaCl control) were also prepared. A positive control containing blood mixed 1:1 with 1% saponin was also prepared. All control tubes were incubated at 37° C. (±5° C.) for 30 minutes. […] During the incubation tubes containing the test and reference item mixed with saline were prepared to check if the test or reference item interfered with the absorbance readings. […] The percent hemolysis of each sample was calculated based on the hemoglobin content of the supernatant, expressed as a percentage of hemoglobin content of the donor sample, after correcting for dilution and interference from the sample, if any.

Data set [1] is described as follows: Toxicokinetics of bivalirudin in satellite animals of the rat study (plasma concentrations). The following applies: both sexes, Sprague-Dawley, in vivo, iv, 24 hours after termination of dosing, 7 out of 23 samples, all others below 50 ng/mL, read-out: plasma bivalirudin concentration at the 24-hour timepoint. As for the experimental part: The infusion rate was 2.5 mL/kg/h for all groups. A separate set of satellite animals (6/sex/group) were administered the same set of materials and used for evaluating the toxicokinetics (TK) of bivalirudin at 5 minutes and 24 hours after termination of dosing (3 animals/sex/group/timepoint). See Table 16b for group allocation. All animals were sacrificed on Day 16, one day following the end of the 14-day infusion.
Mean plasma concentrations of bivalirudin at C5 were similar in males treated with the high-dose (250 mg/kg/day) of MAIA Bivalirudin Injection or Sandoz Bivalirudin, and only slightly lower (approximately 20% lower) in the female treated with MAIA Bivalirudin than in the females treated with Sandoz Bivalirudin. However, it must be noted that data are available from just one female for the MAIA product, due to premature deaths or inability to collect blood.

Consider saponin, for which, in the data set on Whole human blood, the “% Hemolysis” value was found to be 100.0 ± 0.8% and the “% hemolysis (positive control)” value worked out at 100%.

As to `CC[C@H](C)[C@H](NC(=O)[C@H](CCC(=O)O)NC(=O)[C@H](CCC(=O)O)NC(=O)[C@H](Cc1ccccc1)NC(=O)[C@H](CC(=O)O)NC(=O)CNC(=O)[C@H](CC(N)=O)NC(=O)CNC(=O)CNC(=O)CNC(=O)CNC(=O)[C@@H]1CCCN1C(=O)[C@H](CCCNC(=N)N)NC(=O)[C@@H]1CCCN1C(=O)[C@H](N)Cc1ccccc1)C(=O)N1CCC[C@H]1C(=O)N[C@@H](CCC(=O)O)C(=O)N[C@@H](CCC(=O)O)C(=O)N[C@@H](Cc1ccc(O)cc1)C(=O)N[C@@H](CC(C)C)C(=O)O` [bivalirudin], the level at 24 h in data set [1] lay within 50.5 to 159 ng/mL.
